Measured values taken from the Kinase Knowledgebase extract (Sharma et al. 2016).

target: PIK3CA (UniProt P42336); test: In Vitro Inhibition of PIK3CA Kinase Activity
Sequence (P42336 whole entry, looked up): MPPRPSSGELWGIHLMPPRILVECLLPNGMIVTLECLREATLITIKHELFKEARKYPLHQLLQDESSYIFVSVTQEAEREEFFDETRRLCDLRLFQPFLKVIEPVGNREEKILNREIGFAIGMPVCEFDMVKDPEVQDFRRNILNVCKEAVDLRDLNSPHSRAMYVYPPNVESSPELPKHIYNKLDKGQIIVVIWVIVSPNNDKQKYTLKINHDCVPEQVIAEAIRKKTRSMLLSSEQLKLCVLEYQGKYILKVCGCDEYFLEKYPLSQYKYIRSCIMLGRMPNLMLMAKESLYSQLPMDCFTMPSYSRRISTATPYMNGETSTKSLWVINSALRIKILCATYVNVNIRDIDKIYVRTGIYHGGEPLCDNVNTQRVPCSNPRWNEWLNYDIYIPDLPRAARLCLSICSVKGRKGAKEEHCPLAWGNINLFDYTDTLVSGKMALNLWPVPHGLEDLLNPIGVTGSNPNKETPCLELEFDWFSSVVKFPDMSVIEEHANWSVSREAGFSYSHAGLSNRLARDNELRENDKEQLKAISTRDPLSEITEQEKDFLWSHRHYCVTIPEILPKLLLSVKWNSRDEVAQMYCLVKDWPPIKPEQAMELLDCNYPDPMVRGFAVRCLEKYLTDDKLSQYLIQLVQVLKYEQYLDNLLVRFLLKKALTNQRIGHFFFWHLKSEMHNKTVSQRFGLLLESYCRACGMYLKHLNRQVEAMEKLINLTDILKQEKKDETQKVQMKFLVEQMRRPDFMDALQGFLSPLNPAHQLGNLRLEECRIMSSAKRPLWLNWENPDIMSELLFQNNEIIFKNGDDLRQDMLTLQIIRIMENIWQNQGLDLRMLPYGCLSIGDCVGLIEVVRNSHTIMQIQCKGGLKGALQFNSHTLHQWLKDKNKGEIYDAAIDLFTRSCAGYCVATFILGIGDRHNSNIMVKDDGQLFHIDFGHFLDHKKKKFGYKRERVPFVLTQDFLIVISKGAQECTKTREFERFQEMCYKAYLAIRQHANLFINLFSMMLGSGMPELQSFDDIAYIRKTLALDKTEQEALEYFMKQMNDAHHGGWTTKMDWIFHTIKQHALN

Row | SMILES | IC50
1 | O=c1cc(N2CCOCC2)oc2cc(OCc3ccc(Cl)cc3)ccc12 | > 100 µM
2 | O=c1cc(-c2ccc(F)cc2)oc(N2CCOCC2)c1 | 13 µM
3 | CC(C)(C)c1ccc(-c2cc(=O)cc(N3CCOCC3)o2)cc1 | 37 µM
4 | O=c1cc(-c2ccccc2)oc(N2CCOCC2)c1 | 30 µM
5 | COc1ccc(-c2cc(=O)cc(N3CCOCC3)o2)cc1 | 15 µM
6 | O=c1cc(-c2ccc(Cl)cc2)oc(N2CCOCC2)c1 | 10 µM
7 | O=c1cc(N2CCOCC2)oc2c3c(ccc12)CCCC3 | 18 µM

Second part, the compound after the results:

Row | IC50 | SMILES
8 | 11 µM | O=c1cc(N2CCOCC2)oc2ccc3ccccc3c12
9 | 6 µM | O=c1cc(N2CCSCC2)oc2c1ccc1ccccc12
10 | 16 µM | O=c1cc(N2CCOCC2)oc2cc3ccccc3cc12
11 | 6 µM | O=C1c2ccccc2C(=O)N1CCCOc1ccc2c(=O)cc(N3CCOCC3)oc2c1
12 | 20 µM | O=c1cc(N2CCOCC2)oc2c1ccc1ccccc12
13 | 2.5 µM | CC1CN(c2cc(=O)c3ccc4ccccc4c3o2)CCO1 (stereo not given)
14 | 750 µM | O=c1cc(N2CCOCC2)nc2c3ccccc3ccn12
15 | 95 µM | O=c1cc(N2CCOCC2)oc2cc(OCc3ccc(F)cc3)ccc12
